{"source": "PubChem BioAssay (NCI)", "assay_in_all_cases": "NCI anticancer screen, dose series, 48 h", "key": {"[1]": {"system": "DU-145 prostate"}, "[2]": {"system": "EKVX NSCLC"}, "[3]": {"system": "K-562 leukemia"}, "[4]": {"system": "KM12 colon"}, "[5]": {"system": "MALME-3M melanoma"}, "[6]": {"system": "MCF7 breast"}, "[7]": {"system": "SF-295 CNS"}, "[8]": {"system": "T-47D breast"}, "[9]": {"system": "DLD-1 colon"}, "[10]": {"system": "LXFL 529 NSCLC"}}, "note": "Several values for one entry are separate records, joined by “and”; a condition that tells them apart may be missing. Equal values may be shown once.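 Values below derive from 48-hour exposures of cells grown in 96-well plates, with endpoints linearly interpolated between the two concentrations bracketing the appropriate inhibition level. The concentration for 50% growth inhibition is given as GI50. TGI marks complete inhibition of growth.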"}
{"smiles": "CC(C)(C)C(=O)c1c(C(F)(F)F)n([O-])c2ccccc2[n+]1=O", "values": [{"measurement": "GI50", "setting": "[1]", "result": 356, "unit": "nM"}, {"measurement": "TGI", "setting": "[1]", "result": 0.892, "unit": "µM"}, {"measurement": "GI50", "setting": "[2]", "result": 757, "unit": "nM"}, {"measurement": "TGI", "setting": "[2]", "result": 2.3, "unit": "µM"}, {"measurement": "GI50", "setting": "[3]", "result": 757, "unit": "nM"}, {"measurement": "TGI", "setting": "[3]", "result": 2.38, "unit": "µM"}, {"measurement": "GI50", "setting": "[4]", "result": 905, "unit": "nM"}, {"measurement": "TGI", "setting": "[4]", "result": 2.4, "unit": "µM"}, {"measurement": "GI50", "setting": "[5]", "result": 973, "unit": "nM"}, {"measurement": "TGI", "setting": "[5]", "result": 2.34, "unit": "µM"}, {"measurement": "GI50", "setting": "[6]", "result": 421, "unit": "nM"}, {"measurement": "TGI", "setting": "[6]", "result": 2.03, "unit": "µM"}, {"measurement": "GI50", "setting": "[7]", "result": 294, "unit": "nM"}, {"measurement": "TGI", "setting": "[7]", "result": 1.27, "unit": "µM"}, {"measurement": "GI50", "setting": "[8]", "result": 597, "unit": "nM"}, {"measurement": "TGI", "setting": "[8]", "result": 1.78, "unit": "µM"}]}
{"smiles": "COc1ccc2c(C)cc(N/N=C/c3ccc(OC)c4ccccc34)nc2c1", "values": [{"measurement": "TGI", "setting": "[1]", "result": 16.4, "unit": "µM"}, {"measurement": "TGI", "setting": "[2]", "result": 35.1, "unit": "µM"}, {"measurement": "TGI", "setting": "[3]", "result": 32.3, "unit": "µM"}, {"measurement": "TGI", "setting": "[4]", "result": 29.6, "unit": "µM"}, {"measurement": "TGI", "setting": "[5]", "result": 36.3, "unit": "µM"}, {"measurement": "TGI", "setting": "[6]", "result": 44.6, "unit": "µM"}, {"measurement": "TGI", "setting": "[7]", "result": 32, "unit": "µM"}, {"measurement": "TGI", "setting": "[8]", "result": 24.1, "unit": "µM"}]}
{"smiles": "CC(C)=CCc1c(OC(=O)c2c(C)cc(O)cc2O)cc(CO)c(CO)c1O", "values": [{"measurement": "TGI", "setting": "[1]", "result": 70.4, "unit": "µM"}, {"measurement": "TGI", "setting": "[2]", "result": "> 100", "unit": "µM"}, {"measurement": "TGI", "setting": "[3]", "result": 32.9, "unit": "µM"}, {"measurement": "TGI", "setting": "[4]", "result": 30.6, "unit": "µM"}, {"measurement": "TGI", "setting": "[5]", "result": 45.4, "unit": "µM"}, {"measurement": "TGI", "setting": "[6]", "result": 46.5, "unit": "µM"}, {"measurement": "TGI", "setting": "[7]", "result": 37.5, "unit": "µM"}, {"measurement": "TGI", "setting": "[8]", "result": 23.8, "unit": "µM"}]}
{"smiles": "COc1cc(OC)cc(N(CCNC(C)C)c2ccc3ncc(-c4cnn(C)c4)nc3c2)c1", "values": [{"measurement": "GI50", "setting": "[1]", "result": 5290, "unit": "nM"}, {"measurement": "TGI", "setting": "[1]", "result": 17.9, "unit": "µM"}, {"measurement": "GI50", "setting": "[2]", "result": 13100, "unit": "nM"}, {"measurement": "TGI", "setting": "[2]", "result": 27, "unit": "µM"}, {"measurement": "GI50", "setting": "[3]", "result": 2110, "unit": "nM"}, {"measurement": "TGI", "setting": "[3]", "result": 10.8, "unit": "µM"}, {"measurement": "GI50", "setting": "[4]", "result": 7530, "unit": "nM"}, {"measurement": "TGI", "setting": "[4]", "result": 21.8, "unit": "µM"}, {"measurement": "GI50", "setting": "[5]", "result": 6480, "unit": "nM"}, {"measurement": "TGI", "setting": "[5]", "result": 21.5, "unit": "µM"}, {"measurement": "GI50", "setting": "[6]", "result": 10500, "unit": "nM"}, {"measurement": "TGI", "setting": "[6]", "result": 24.3, "unit": "µM"}, {"measurement": "GI50", "setting": "[7]", "result": 10800, "unit": "nM"}, {"measurement": "TGI", "setting": "[7]", "result": 25.1, "unit": "µM"}, {"measurement": "GI50", "setting": "[8]", "result": 12700, "unit": "nM"}, {"measurement": "TGI", "setting": "[8]", "result": 30.3, "unit": "µM"}]}
{"smiles": "c1cc(N(CCn2cccn2)CCn2cccn2)cc(N(CCn2cccn2)CCn2cccn2)c1", "values": [{"measurement": "TGI", "setting": "[9]", "result": "> 100", "unit": "µM"}, {"measurement": "TGI", "setting": "[2]", "result": "> 100", "unit": "µM"}, {"measurement": "TGI", "setting": "[3]", "result": "> 100", "unit": "µM"}, {"measurement": "TGI", "setting": "[4]", "result": "> 100", "unit": "µM"}, {"measurement": "TGI", "setting": "[10]", "result": "> 100", "unit": "µM"}, {"measurement": "TGI", "setting": "[7]", "result": "> 100", "unit": "µM"}]}
{"smiles": "COC(=O)/C=C1/CCC(C(=O)OC)N1", "note": "(centres undefined)", "values": [{"measurement": "TGI", "setting": "[9]", "result": "> 100", "unit": "µM"}, {"measurement": "TGI", "setting": "[2]", "result": "> 100", "unit": "µM"}, {"measurement": "TGI", "setting": "[3]", "result": "> 100", "unit": "µM"}, {"measurement": "TGI", "setting": "[4]", "result": "> 100", "unit": "µM"}, {"measurement": "TGI", "setting": "[10]", "result": "> 100", "unit": "µM"}, {"measurement": "TGI", "setting": "[7]", "result": "> 100", "unit": "µM"}]}
{"smiles": "O=C(CO[N+](=O)[O-])Nc1ccc(C(=O)/C=C/c2ccc(Cl)cc2)cc1", "values": [{"measurement": "GI50", "setting": "[1]", "result": 3410, "unit": "nM"}, {"measurement": "TGI", "setting": "[1]", "result": 13.5, "unit": "µM"}, {"measurement": "GI50", "setting": "[2]", "result": 15000, "unit": "nM"}, {"measurement": "TGI", "setting": "[2]", "result": 74.6, "unit": "µM"}, {"measurement": "GI50", "setting": "[3]", "result": 2600, "unit": "nM"}, {"measurement": "TGI", "setting": "[3]", "result": "> 100", "unit": "µM"}, {"measurement": "GI50", "setting": "[4]", "result": 1540, "unit": "nM"}, {"measurement": "TGI", "setting": "[4]", "result": 3.1, "unit": "µM"}, {"measurement": "GI50", "setting": "[5]", "result": 2130, "unit": "nM"}, {"measurement": "TGI", "setting": "[5]", "result": 6.61, "unit": "µM"}, {"measurement": "GI50", "setting": "[6]", "result": 666, "unit": "nM"}, {"measurement": "TGI", "setting": "[6]", "result": 6.44, "unit": "µM"}, {"measurement": "GI50", "setting": "[7]", "result": 5820, "unit": "nM"}, {"measurement": "TGI", "setting": "[7]", "result": 29.2, "unit": "µM"}, {"measurement": "GI50", "setting": "[8]", "result": 3260, "unit": "nM"}, {"measurement": "TGI", "setting": "[8]", "result": 14.9, "unit": "µM"}]}
{"smiles": "CC1CCC2(CC1)NN=c1s/c(=C\\c3ccc(O)cc3)c(=O)n1N2", "note": "(centres undefined)", "values": [{"measurement": "TGI", "setting": "[9]", "result": "> 100", "unit": "µM"}, {"measurement": "TGI", "setting": "[2]", "result": "> 100", "unit": "µM"}, {"measurement": "TGI", "setting": "[3]", "result": "> 100", "unit": "µM"}, {"measurement": "TGI", "setting": "[4]", "result": "> 100", "unit": "µM"}, {"measurement": "TGI", "setting": "[10]", "result": "> 100", "unit": "µM"}, {"measurement": "TGI", "setting": "[7]", "result": "> 100", "unit": "µM"}]}
{"smiles": "Cc1nc(SCC(=O)Nc2nc(-c3ccc(Cl)cc3)cs2)n(Nc2ccccc2)c1C", "values": [{"measurement": "GI50", "setting": "[1]", "result": 5640, "unit": "nM"}, {"measurement": "TGI", "setting": "[1]", "result": 18.7, "unit": "µM"}, {"measurement": "GI50", "setting": "[2]", "result": 1840, "unit": "nM"}, {"measurement": "TGI", "setting": "[2]", "result": 12.2, "unit": "µM"}, {"measurement": "GI50", "setting": "[3]", "result": 120, "unit": "nM"}, {"measurement": "TGI", "setting": "[3]", "result": "> 100", "unit": "µM"}, {"measurement": "GI50", "setting": "[4]", "result": 2950, "unit": "nM"}, {"measurement": "TGI", "setting": "[4]", "result": 14, "unit": "µM"}, {"measurement": "GI50", "setting": "[5]", "result": 10800, "unit": "nM"}, {"measurement": "TGI", "setting": "[5]", "result": 37.6, "unit": "µM"}, {"measurement": "GI50", "setting": "[6]", "result": 2940, "unit": "nM"}, {"measurement": "TGI", "setting": "[6]", "result": 11.4, "unit": "µM"}, {"measurement": "GI50", "setting": "[7]", "result": 2290, "unit": "nM"}, {"measurement": "TGI", "setting": "[7]", "result": 16.5, "unit": "µM"}, {"measurement": "GI50", "setting": "[8]", "result": 1400, "unit": "nM"}, {"measurement": "TGI", "setting": "[8]", "result": 5.24, "unit": "µM"}]}
{"smiles": "FC(F)c1nc2ccccc2n1-c1nc(N2CCOCC2)nc(N2CCOCC2)n1", "values": [{"measurement": "GI50", "setting": "[1]", "result": "420 nM and 432 nM"}, {"measurement": "TGI", "setting": "[1]", "result": "> 100", "unit": "µM"}, {"measurement": "GI50", "setting": "[2]", "result": 445, "unit": "nM"}, {"measurement": "TGI", "setting": "[2]", "result": 4.88, "unit": "µM"}, {"measurement": "GI50", "setting": "[3]", "result": "4090 nM and 5150 nM"}, {"measurement": "TGI", "setting": "[3]", "result": "> 100", "unit": "µM"}, {"measurement": "GI50", "setting": "[4]", "result": "739 nM and 969 nM"}, {"measurement": "TGI", "setting": "[4]", "result": "> 100", "unit": "µM"}, {"measurement": "GI50", "setting": "[5]", "result": "178 nM and 160 nM"}, {"measurement": "TGI", "setting": "[5]", "result": "1.65 µM and 0.919 µM"}, {"measurement": "GI50", "setting": "[6]", "result": "136 nM and 129 nM"}, {"measurement": "TGI", "setting": "[6]", "result": "> 62.7", "unit": "µM"}, {"measurement": "GI50", "setting": "[7]", "result": "237 nM and 196 nM"}, {"measurement": "TGI", "setting": "[7]", "result": "1.63 µM and 1.78 µM"}, {"measurement": "GI50", "setting": "[8]", "result": "50.2 nM and 110 nM"}, {"measurement": "TGI", "setting": "[8]", "result": "0.388 µM and 0.565 µM"}]}
